Measured values as given in PubChem BioAssay AID2060883 (Molecular Pharmacology Branch, DTP, NCI, 2025).
Blank lines part the entries; values can stand above or below the compound they belong to.

Tested on: 843782-103-R-J1-PDC complex spheroid viability
Assay: Anticancer human tumor 843782-103-R-J1-PDC patient-derived lung adenocarcinoma cell line growth inhibition [RAS]
Conditions: for IC50: curve of first compound; for viability, T/C: stronger effect = lower value
Excerpt: RAS pathway inhibitors in Combinations in Complex Spheroids
A high-throughput screen of multi-cell type tumor spheroids was designed to identify active combinations of RAS pathway inhibitors and targeted small molecules. Complex spheroids include a stromal component modeled by human endothelial cells (HUVEC) and fibroblasts modeled by human mesenchymal stem cells (MSCs). The concentration ranges selected for each drug and investigational agent were based upon clinically achievable concentrations if the clinical Cmax of the agent was known.
Compounds. The drugs and investigational agents: abemaciclib (NSC768073), cobimetinib (NSC768068), divarasib (GDC6063, NSC841802), docetaxel (NSC628503), GDC-1971 (RLY-1971, NSC841576), gemcitabine (NSC613327), inavolisib (NSC800729), ipatasertib (NSC767898), KB-0742 (NSC834161), MRTX-1133 (NSC836407), osimertinib (NSC779217), RMC-4630 (NSC839698), RMC-6236 (NSC851965), RMC-6291 (NSC852671), Ro-3306 (NSC812927), sapanisertib (NSC764658), SN-38 (NSC673596), staurosporine (NSC755774), SY5609 (NSC837396), and tovorafenib (DAY101, NSC766906), were obtained from the National Cancer Institute (NCI) Developmental Therapeutics Program Chemical Repository. The FDA-approved anticancer drug set is available from the NCI Developmental Therapeutics Program. […] The stock solutions were prepared in dimethyl sulfoxide (DMSO, Sigma-Aldrich, St. Louis, MO, cat. D2650) at 800-fold the tested concentration and stored at -70 degrees C prior to their use. All drugs and investigational agents were tested over a range starting from a high concentration at or near the clinical Cmax and decreasing in half-log increments. If the clinical Cmax for an agent had not been determined, the highest concentration tested was 10 microM.
Cell Culture. All cells were maintained in an incubator at 37 degrees C and 5% CO2 with 95% humidity. The PDC lines were cultured according to standard operating procedures established by the NCI PDMR. All PDCs were thawed and cultured in Matrigel-coated flasks prepared with a working solution of 1X Ham's F-12 nutrient mix, without supplementation (Invitrogen, Waltham, MA, cat. 11765054), 100 U/mL penicillin-streptomycin (Invitrogen, cat. 15140122), and 2.5% Matrigel (Corning Inc., Corning, NY, cat. 354248) for the first three passages. The 362531-283-R-J2-PDC and 782815-120-R-J1-PDC lines were cultured in 6C/Colon 1B media, which includes advanced DMEM/F-12 (Thermo Fisher Scientific, cat. 12634028), 10 mM HEPES (Thermo Fisher Scientific, cat. 15630080), 1X GlutaMAX supplement (Thermo Fisher Scientific, cat. 35050061), 0.1 mg/mL primocin (InvivoGen, San Diego, CA, cat. ant-pm-2), 10% defined fetal bovine serum, heat inactivated (HyClone Laboratories Inc., Logan, UT, cat. SH30070.03HI), 50% L-WRN conditioned media (ATCC, cat. CRL-3276), 1.25 mM N-Acetyl-L-cysteine (Sigma-Aldrich, cat. A9165), 10 mM nicotinamide (Sigma-Aldrich, cat. N0636), 1X B-27 supplement (Thermo Fisher Scientific, cat. 17504044), 1X N-2 supplement (Thermo Fisher Scientific, cat. 17502048), 50 ng/mL human EGF (Thermo Fisher Scientific, cat. PHG0311), and 10 microM Y-27632 dihydrochloride (Tocris Bioscience, cat. 1254). The K12877-001-R-J1-PDC line was cultured in 6I media, which includes all 6C/Colon 1B media plus 10 ng/mL human FGF-10 (PeproTech, cat. 100-26), 1 ng/mL human FGF-2 (PeproTech, cat. 100-18B), 1 µM prostaglandin E2 (Tocris Bioscience, cat. 2296), […] hydrocortisone (Sigma-Aldrich, cat. H4001), and […] bovine insulin (Sigma-Aldrich, cat. I6634). The K86415-001-R-J1-PDC line was cultured in 6D media, which includes all 6C/Colon 1B media components minus the L-WRN conditioned media. The 485176-168-R4-J1-PDC was cultured in PANC media, which includes all 6C/Colon 1B media plus 100 ng/mL human FGF-10 (PeproTech, cat. 100-26), 500 nM SB-431542 (Selleckchem, cat. S1067), and 10 nM gastrin (Tocris Bioscience, cat. 3006). […]

[1] = second compound 0.0316 µM, first compound 0.0316 µM
[2] = second compound 0.0316 µM, first compound 0.1 µM
[3] = second compound 0.0316 µM, first compound 0.316 µM
[4] = second compound 0.0316 µM, first compound 1 µM
[5] = second compound 0.0316 µM, first compound 3.16 µM
[6] = second compound 0.0316 µM, first compound 10 µM
[7] = second compound 0.1 µM, first compound 0.0316 µM
[8] = second compound 0.1 µM, first compound 0.1 µM
[9] = second compound 0.1 µM, first compound 0.316 µM
[10] = second compound 0.1 µM, first compound 1 µM
[11] = second compound 0.1 µM, first compound 3.16 µM
[12] = second compound 0.1 µM, first compound 10 µM
[13] = second compound 0.316 µM, first compound 0.0316 µM
[14] = second compound 0.316 µM, first compound 0.1 µM
[15] = second compound 0.316 µM, first compound 0.316 µM
[16] = second compound 0.316 µM, first compound 1 µM
[17] = second compound 0.316 µM, first compound 3.16 µM
[18] = second compound 0.316 µM, first compound 10 µM
[19] = second compound 1 µM, first compound 0.0316 µM
[20] = second compound 1 µM, first compound 0.1 µM
[21] = second compound 1 µM, first compound 0.316 µM
[22] = second compound 1 µM, first compound 1 µM
[23] = second compound 1 µM, first compound 3.16 µM
[24] = second compound 1 µM, first compound 10 µM
[25] = second compound 3.16 µM, first compound 0.0316 µM
[26] = second compound 3.16 µM, first compound 0.1 µM
[27] = second compound 3.16 µM, first compound 0.316 µM
[28] = second compound 3.16 µM, first compound 1 µM
[29] = second compound 3.16 µM, first compound 3.16 µM
[30] = second compound 3.16 µM, first compound 10 µM
[31] = second compound 10 µM, first compound 0.0316 µM
[32] = second compound 10 µM, first compound 0.1 µM
[33] = second compound 10 µM, first compound 0.316 µM
[34] = second compound 10 µM, first compound 1 µM
[35] = second compound 10 µM, first compound 3.16 µM
[36] = second compound 10 µM, first compound 10 µM
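Also: viability read after seven days of compound exposure.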

IC50 (second compound 0.0316 µM): 237 nM
IC50 (second compound 0.1 µM): 343 nM
IC50 (second compound 0.316 µM): 283 nM
IC50 (second compound 1 µM): 304 nM
IC50 (second compound 3.16 µM): 149 nM
IC50 (second compound 10 µM): < 31.6 nM
SMILES: CC1(O)CCCC1n1c(=O)c(C(F)F)cc2cnc(NC3CCN(S(C)(=O)=O)CC3)nc21 (stereo unspecified) + C#Cc1c(F)ccc2cc(O)cc(-c3ncc4c(N5CC6CCC(C5)N6)nc(OCC56CCCN5CC(F)C6)nc4c3F)c12
viability, T/C [1]: 98.9%
viability, T/C [2]: 93.4%
viability, T/C [3]: 34.7%
viability, T/C [4]: 41.8%
viability, T/C [5]: 23.2%
viability, T/C [6]: 3.99%
viability, T/C [7]: 102%
viability, T/C [8]: 82.7%
viability, T/C [9]: 37%
viability, T/C [10]: 38.9%
viability, T/C [11]: 23.6%
viability, T/C [12]: 3.28%
viability, T/C [13]: 104%
viability, T/C [14]: 77.5%
viability, T/C [15]: 33.8%
viability, T/C [16]: 37.3%
viability, T/C [17]: 26.5%
viability, T/C [18]: 3.67%
viability, T/C [19]: 97.9%
viability, T/C [20]: 79.1%
viability, T/C [21]: 39.2%
viability, T/C [22]: 31.7%
viability, T/C [23]: 26.2%
viability, T/C [24]: 3.42%
viability, T/C [25]: 84.6%
viability, T/C [26]: 56.5%
viability, T/C [27]: 27.6%
viability, T/C [28]: 33.9%
viability, T/C [29]: 26%
viability, T/C [30]: 2.68%
viability, T/C [31]: 52.9%
viability, T/C [32]: 32.7%
viability, T/C [33]: 30.9%
viability, T/C [34]: 27.6%
viability, T/C [35]: 29%
viability, T/C [36]: 1.43%

IC50 (second compound 0.0316 µM): > 1000 nM
IC50 (second compound 0.1 µM): > 1000 nM
IC50 (second compound 0.316 µM): > 1000 nM
IC50 (second compound 1 µM): 905 nM
IC50 (second compound 3.16 µM): 415 nM
IC50 (second compound 10 µM): 76.7 nM
SMILES: CCN1CCN(Cc2ccc(Nc3ncc(F)c(-c4cc(F)c5nc(C)n(C(C)C)c5c4)n3)nc2)CC1 + C#Cc1c(F)ccc2cc(O)cc(-c3ncc4c(N5CC6CCC(C5)N6)nc(OCC56CCCN5CC(F)C6)nc4c3F)c12
viability, T/C (second compound 0.0316 µM, first compound 0.00316 µM): 108%
viability, T/C (second compound 0.0316 µM, first compound 0.01 µM): 93%
viability, T/C [1]: 101%
viability, T/C [2]: 105%
viability, T/C [3]: 101%
viability, T/C [4]: 71%
viability, T/C (second compound 0.1 µM, first compound 0.00316 µM): 107%
viability, T/C (second compound 0.1 µM, first compound 0.01 µM): 104%
viability, T/C [7]: 93.3%
viability, T/C [8]: 97.3%
viability, T/C [9]: 97.1%
viability, T/C [10]: 75%
viability, T/C (second compound 0.316 µM, first compound 0.00316 µM): 107%
viability, T/C (second compound 0.316 µM, first compound 0.01 µM): 101%
viability, T/C [13]: 103%
viability, T/C [14]: 99.3%
viability, T/C [15]: 86.7%
viability, T/C [16]: 65%
viability, T/C (second compound 1 µM, first compound 0.00316 µM): 105%
viability, T/C (second compound 1 µM, first compound 0.01 µM): 92.6%
viability, T/C [19]: 93.9%
viability, T/C [20]: 89.5%
viability, T/C [21]: 75.9%
viability, T/C [22]: 46.9%
viability, T/C (second compound 3.16 µM, first compound 0.00316 µM): 87.2%
viability, T/C (second compound 3.16 µM, first compound 0.01 µM): 88.6%
viability, T/C [25]: 79.5%
viability, T/C [26]: 69.4%
viability, T/C [27]: 53.1%
viability, T/C [28]: 40%
viability, T/C (second compound 10 µM, first compound 0.00316 µM): 67%
viability, T/C (second compound 10 µM, first compound 0.01 µM): 60.9%
viability, T/C [31]: 57.6%
viability, T/C [32]: 46.2%
viability, T/C [33]: 40.6%
viability, T/C [34]: 26.6%

IC50 (second compound 0.0316 µM): > 10000 nM
IC50 (second compound 0.1 µM): > 10000 nM
IC50 (second compound 0.316 µM): > 10000 nM
IC50 (second compound 1 µM): > 10000 nM
IC50 (second compound 3.16 µM): > 10000 nM
IC50 (second compound 10 µM): > 10000 nM
SMILES: C[C@@H](NC(=O)c1ncnc(N)c1Cl)c1ncc(C(=O)Nc2cc(C(F)(F)F)c(Cl)cn2)s1 + C#Cc1c(F)ccc2cc(O)cc(-c3ncc4c(N5CC6CCC(C5)N6)nc(OCC56CCCN5CC(F)C6)nc4c3F)c12
viability, T/C [1]: 114%
viability, T/C [2]: 97.2%
viability, T/C [3]: 99.9%
viability, T/C [4]: 101%
viability, T/C [5]: 112%
viability, T/C [6]: 101%
viability, T/C [7]: 112%
viability, T/C [8]: 105%
viability, T/C [9]: 98.6%
viability, T/C [10]: 101%
viability, T/C [11]: 101%
viability, T/C [12]: 105%
viability, T/C [13]: 110%
viability, T/C [14]: 104%
viability, T/C [15]: 103%
viability, T/C [16]: 102%
viability, T/C [17]: 106%
viability, T/C [18]: 108%
viability, T/C [19]: 101%
viability, T/C [20]: 100%
viability, T/C [21]: 105%
viability, T/C [22]: 101%
viability, T/C [23]: 97.2%
viability, T/C [24]: 95.9%
viability, T/C [25]: 86.9%
viability, T/C [26]: 91%
viability, T/C [27]: 90.5%
viability, T/C [28]: 92.7%
viability, T/C [29]: 80.9%
viability, T/C [30]: 87.2%
viability, T/C [31]: 73.3%
viability, T/C [32]: 84.3%
viability, T/C [33]: 64.8%
viability, T/C [34]: 48.9%
viability, T/C [35]: 54.9%
viability, T/C [36]: 49.1%
